Structures can show the parent of a compound that is named as a salt. Where two headings read alike, the source gives them in different places.
Columns and labels:
[1] = tested on: adriamycin-induced cardiomyopathy
Protocol: The composition of the present invention was examined for suppression effects against adriamycin-induced cardiomyopathy.
A total of 25 male mice (33±5 g, four-week-old) were divided into four groups: three test groups of seven, and one control group of four. Adriamycin (tradename: Doxorubicin Hydrochloride; Sigma-Aldrich, Co, LLC; St. Louis, Mo., USA) in distilled water was intraperitoneally injected at a dose of 1.25 mg/kg once a week for six weeks in the adriamycin group. The other two experimental groups, low-dose and high-dose group, were orally administered with composition 4 at a dose of 32 mg/kg and 64 mg/kg, respectively, everyday for one week, and then intraperitoneally injected with adriamycin in distilled water at a dose of 1.25 mg/kg once a week for six weeks. The control group of 4 mice was injected once a week for six weeks with physiological saline. During the experiment, the mice were given access to food and water ad libitum.
The mice were generally anesthetized before and after the six-week experiment, and subjected to two-dimensional echocardiography using a 15-MHz transducer to measure left ventricular end-diastolic dimension (LVEDD) and left ventricular end-systolic dimension (LVESD), left ventricular end-diastolic posterior wall thickness (PW), and left ventricular end-systolic posterior wall thickness (PW). From these measurements, relative wall thickness (RWT), fraction shortening (FS), and left ventricular ejection fraction (LVEF) were calculated. The echocardiographic data are expressed as mean value±SD of five or higher independent measurements.

[2] = tested on: Ovarian carcinoma cells (SKOV3); assay: Apoptosis by PI staining / FACS, co-treatment with Cisplatin; type: cell-based; details: Individual, 48 hrs
Protocol: Apoptotic effects were assessed using a PI staining method. Propidium iodide (PI) is a fluorescent molecule that can bind to DNA of dead cells to evaluate cell cycle and cell viability.
Ovarian carcinoma cells (SKOV3) were incubated at 37° C. for 24 hrs in minimum essential medium [MEM] supplemented with 10% FBS, 100 units/ml antibiotic antimycotic, and 2.2 g/L sodium bicarbonate in 96-well plates. The ovarian carcinoma cell line was seeded at a density of 1×10^4 cells/well into 96-well plates and allowed to adhere to the bottom during incubation for 24 hrs. […] Afterwards, the cells were washed with PBS, and detached with trypsin-EDTA, followed by centrifugation at 1,000 rpm for 10 min. The cells were fixed with 70% ethanol at 4° C. for 24 hrs. After removal of the ethanol, the cells were washed many times with PBS, suspended in PBS containing RNaseA, and reacted with a PI reagent for 10 min at room temperature in a dark condition.

[3] = tested on: A2780 ovarian carcinoma cell line; assay: Inhibition of cancer cell proliferation, MTT assay, A2780; type: cell-based; details: A2780, 24 hrs incubation
Protocol: (§1) Ovarian […] carcinoma cell lines (SKOV3, A2780) were incubated in minimum essential medium [MEM] supplemented with 10% FBS, 100 units/ml antibiotic antimycotic, and 2.2 g/L sodium bicarbonate at 37° C. for 24 hrs in 96-well plates. The ovarian carcinoma cell lines were seeded at a density of 1×10^4 cells/well into 96-well plates and allowed to adhere to the bottom during incubation for 24 hrs. […] The cells in each well were treated with […] of an MTT reagent (1 mg/ml) for 4 hrs in a dark condition. After the medium was aspirated, the MTT fromazan thus formed was dissolved in […] of DMSO, and absorbance was measured at 540 nm using spectrophotometer.

[4] = Dietary intake (anorexia) in SKOV3 tumor-bearing mice; type: in vivo, Balb/c nu/nu mice; details: for Diet Intake: Cisplatin group (cisplatin 3 mg/kg i.p.)
[5] = tested on: SKOV3 ovarian carcinoma cell line; assay: Inhibition of cancer cell proliferation, MTT assay, SKOV3; type: cell-based; details: SKOV3, 24 hrs incubation
Protocol: as §1

[6] = tested on: ovarian carcinoma cell line SKOV3 tumors; assay: SKOV3 ovarian carcinoma xenograft, tumor volume and weight; type: in vivo, Balb/c nu/nu mice
Protocol: The ovarian carcinoma cell line SKOV3 was detached from a culture dish using trypsin-EDTA, and diluted to a density of […] cells/150 in an RPMI medium supplemented with 10% FBS, followed by subcutaneous injection into the right flank of Balb/c nu/nu mice using a syringe. […] The control group was treated with PBS. During the experimental period, the tumor size, body weight and dietary intake of mice in each group was recorded three times per week.
After 4 weeks, the animals were sacrificed and blood was taken from the animals. Tumors were e.xcised from the animals and measured for size and weight.

[7] = Adriamycin Group, Week 0 (Baseline)

COc1cccc2c1C(=O)c1c(O)c3c(c(O)c1C2=O)C[C@@](O)(C(=O)CO)C[C@@H]3O[C@H]1C[C@H](N)[C@H](O)[C@H](C)O1 [Adriamycin, Doxorubicin Hydrochloride]
LVEDD [1, 7]: 5.7 ± 0.2 mm
LVESD [1, 7]: 2.4 ± 0.3 mm
PW [1, 7]: 1.6 ± 0.2 mm
FS ([1]; Adriamycin Group, Week 6): 44.2 ± 3.2%
LVEF ([1]; Adriamycin Group, Week 6): 70.3 ± 0.3%
LVESD ([1]; Adriamycin Group, Week 6): 3.8 ± 0.3 mm
PW ([1]; Adriamycin Group, Week 6): 1.4 ± 0.3 mm
FS Δ(6 − 0) ([1]; Adriamycin Group, Δ(6 − 0)): 14.4 ± 1.5%
LVEDD Δ(6 − 0) ([1]; Adriamycin Group, Δ(6 − 0)): 1.1 ± 0.1 mm
LVEF Δ(6 − 0) ([1]; Adriamycin Group, Δ(6 − 0)): 15.2 ± 3.0%
LVESD Δ(6 − 0) ([1]; Adriamycin Group, Δ(6 − 0)): 1.4 ± 0.0 mm
PW Δ(6 − 0) ([1]; Adriamycin Group, Δ(6 − 0)): 0.2 ± 0.1 mm
cardiomyopathy after 6 weeks ([1]; echocardiography after 6 weeks of study): cardiomyopathy with significant decrease in left ventricular posterior wall thickness (PW) and in fractional shortening (FS)

N.N.[Cl][Pt][Cl] [Cisplatin, cis-Diammineplatinum (II) dichloride]
Apoptosis (%) ([2]; Cisplatin 3 μM): 3.0%
Apoptosis (%) ([2]; Cisplatin 5 μM): 3.5%
IC50 A2780 [3]: 6.01 µg/mL
Diet Intake ([4]; Week 0): 4.8 gram
Diet Intake ([4]; Week 1): 4.6 gram
Diet Intake ([4]; Week 2): 4.0 gram
Diet Intake ([4]; Week 3): 3.7 gram
Diet Intake ([4]; Week 4): 4.1 gram
dietary intake compared to control group ([4]; during the experimental periods): decrease in dietary intake
IC50 SKOV3 [5]: 12.3 µg/mL
tumor size compared to control ([6]; 4 weeks administration): slightly reduced
Tumor Weight after 4 Weeks ([6]; Cisplatin alone (3 mg/kg i.p.)): 1.7 gram
Tumor Volume ([6]; Cisplatin alone (3 mg/kg i.p.), Week 1): 100 mm3
Tumor Volume ([6]; Cisplatin alone (3 mg/kg i.p.), Week 2): 134 mm3
Tumor Volume ([6]; Cisplatin alone (3 mg/kg i.p.), Week 3): 144 mm3
Tumor Volume ([6]; Cisplatin alone (3 mg/kg i.p.), Week 4): 162 mm3

— patent US20130217760A1, “METHOD FOR ENHANCING THERAPEUTIC EFFECT OF ANTICANCER THERAPIES” (BOTAMEDI INC., priority 2012, published 2013)
